In patent publication US20070161665A1, “Cancer treatment method” (priority 2003, published 2007):
pIC50: −log10 of the molar value.

How the values were obtained:
HN5 cells = assay: Roche Cell Death ELISAPlus apoptosis assay in HN5 cells (median effect and sensitization ratio analysis); format: cell-based; conditions: HN5; for Sensitization Ratio in HN5 with 5 μM GW589522A: 5 μM GW589522A 24 h
Procedure: HN5 cells are LICR-LON-HN5 head and neck carcinoma cells, which were a gift from the Institute of Cancer Research, Surrey, U.K.
(§1) Cell lines were grown in RPMI-1640 supplemented with 25 mM HEPES, 10 mM glutamine and 10% fetal bovine serum and maintained at 37° C. and 5% CO2 in a humid incubator. Assays were performed in 96 well microtiter plates with optimum seeding densities for each cell line.
(§2) Apoptosis was measured using the Roche Cell Death ELISA^Plus kit (catalog 1 774 425) which detects fragmented nucleosomal DNA that is generated during apoptosis.
Synergistic interaction between compounds was analyzed by the median effect method described by Chou and Talalay (Adv. Enzyme Regul. 22: 27-55, 1984). Briefly, if the two compounds fit the mutually exclusive model of Chou, one calculates the combination index (CI) using the formula CI=((D)1/(Dx)1)+((D)2/(Dx)2) (1) where (D)1 is the concentration of drug 1 in the combination that gives “x” percent apoptosis, (D)2 is the same for drug 2, and (Dx)1 and (Dx)2 are the concentrations of drug 1 or 2 that give “x” percent apoptosis when used alone. (D)1 and (D)2 are known from the composition of the combination and (Dx)1 and (Dx)2 can be calculated from the equation Dx=Dm*[fa/(1−fa)]^1/m (2) where Dm is the concentration of drug giving 50% effect, fa is the fraction affected, and m is the slope from the median effect plot of log (fa/fu) where fu is the fraction unaffected versus log (D). A CI less than 1 indicates synergy, equal to 1 indicates additivity and greater than 1 antagonism.
Sensitization is measured as the ratio between observed and expected apoptosis or caspase activation from a combination of AKT kinase inhibitor and EGFR/erb inhibitor. The expected level of activity (Ae) is calculated by Ae=1−((1−A1)*(1−A2)) (3) where A1 and A2 are the activities of drugs 1 and 2 alone at the concentration used in the combination (Harvey, R. J., J. Theor. Biol. 74: 411-437, 1978).

T47D cells = assay: Roche Cell Death ELISAPlus apoptosis assay in T47D cells (sensitization ratio); format: cell-based, human; conditions: compound at 25 μM, combined with GW589522
Procedure: T47D cells are human breast ductal carcinoma cells originally obtained from the American Type Culture Collection.
as §1, §2
The expected level of activity (Ae) is calculated by Ae=1−((1−A1)*(1−A2)) (3) where A1 and A2 are the activities of drugs 1 and 2 alone at the concentration used in the combination (Harvey, R. J., J. Theor. Biol. 74: 411-437, 1978).
Apoptosis was measured using the Roche Cell Death ELISA^Plus kit, and the relative percentage of apoptosis was determined for each combination.

AKT1 = AKT1 (Homo sapiens, UniProt P31749); assay: Inhibition of AKT isoforms, enzyme IC50; format: biochemical
AKT2 = AKT2 (Homo sapiens, UniProt P31751); assay: Inhibition of AKT isoforms, enzyme IC50; format: biochemical
AKT3 = AKT3 (Homo sapiens, UniProt Q9Y243); assay: Inhibition of AKT isoforms, enzyme IC50; format: biochemical
AKT3, sequence (Q9Y243 whole entry, species assumed, canonical isoform): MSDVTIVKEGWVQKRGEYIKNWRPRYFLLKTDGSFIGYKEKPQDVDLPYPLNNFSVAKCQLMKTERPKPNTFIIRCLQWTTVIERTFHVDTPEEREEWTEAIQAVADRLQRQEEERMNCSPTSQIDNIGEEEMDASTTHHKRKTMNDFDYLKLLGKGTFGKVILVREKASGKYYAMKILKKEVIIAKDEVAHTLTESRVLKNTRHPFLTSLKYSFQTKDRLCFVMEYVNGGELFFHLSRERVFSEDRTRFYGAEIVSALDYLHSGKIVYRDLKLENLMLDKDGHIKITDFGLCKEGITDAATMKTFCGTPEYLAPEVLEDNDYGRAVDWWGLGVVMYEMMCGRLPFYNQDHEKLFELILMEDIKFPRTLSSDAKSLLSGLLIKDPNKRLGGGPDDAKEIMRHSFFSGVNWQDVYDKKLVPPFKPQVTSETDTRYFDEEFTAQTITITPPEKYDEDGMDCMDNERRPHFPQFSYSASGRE

AKT2, sequence (P31751 whole entry, species assumed, canonical isoform): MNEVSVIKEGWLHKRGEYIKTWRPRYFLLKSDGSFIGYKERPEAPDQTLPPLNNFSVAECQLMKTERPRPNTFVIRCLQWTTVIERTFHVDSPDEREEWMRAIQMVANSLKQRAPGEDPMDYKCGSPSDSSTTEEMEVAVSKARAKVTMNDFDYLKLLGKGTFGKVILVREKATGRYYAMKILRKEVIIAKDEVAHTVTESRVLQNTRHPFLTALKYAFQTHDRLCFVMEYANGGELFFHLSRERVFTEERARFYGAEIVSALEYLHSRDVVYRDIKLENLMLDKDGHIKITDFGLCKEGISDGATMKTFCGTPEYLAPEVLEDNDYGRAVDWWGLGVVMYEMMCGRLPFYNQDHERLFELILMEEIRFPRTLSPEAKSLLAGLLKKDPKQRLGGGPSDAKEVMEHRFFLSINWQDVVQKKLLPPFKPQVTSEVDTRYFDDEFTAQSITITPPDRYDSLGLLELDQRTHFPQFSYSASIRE
AKT1, sequence (P31749 whole entry, species assumed, canonical isoform): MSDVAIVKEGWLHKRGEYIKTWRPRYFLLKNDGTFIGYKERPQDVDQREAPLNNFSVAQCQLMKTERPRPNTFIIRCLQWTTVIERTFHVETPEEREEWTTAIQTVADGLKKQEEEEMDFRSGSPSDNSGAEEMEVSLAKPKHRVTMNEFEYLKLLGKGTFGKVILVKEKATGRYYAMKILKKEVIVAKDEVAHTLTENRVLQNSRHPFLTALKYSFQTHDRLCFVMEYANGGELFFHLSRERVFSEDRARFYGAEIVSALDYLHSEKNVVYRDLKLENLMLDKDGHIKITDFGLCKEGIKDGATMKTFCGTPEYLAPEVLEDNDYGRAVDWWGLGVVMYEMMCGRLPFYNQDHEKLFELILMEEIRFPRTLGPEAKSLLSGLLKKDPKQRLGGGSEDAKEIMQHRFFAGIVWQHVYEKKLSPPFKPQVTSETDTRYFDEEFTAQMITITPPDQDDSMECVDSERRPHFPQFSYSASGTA

pIC50 (AKT1) | pIC50 (AKT2) | pIC50 (AKT3) | SMILES | Sensitization Ratio in HN5 with 5 μM GW589522A (HN5 cells; then compound 25 μM 4 h) | SR (sensitization ratio) (T47D cells) | Sensitization Ratio in HN5 with 5 μM GW589522A (HN5 cells; then compound 4 μM 4 h) | Net Apoptosis (HN5 cells; GW572016 0 μM 24 h, then Ex 9 2 μM 4 h) [%] | Net Apoptosis (HN5 cells; GW572016 0 μM 24 h, then Ex 9 4 μM 4 h) [%] | Net Apoptosis (HN5 cells; GW572016 0 μM 24 h, then Ex 9 8 μM 4 h) [%] | Net Apoptosis (HN5 cells; GW572016 0 μM 24 h, then Ex 9 16 μM 4 h) [%] | Net Apoptosis (HN5 cells; GW572016 0 μM 24 h, then Ex 9 20 μM 4 h) [%] | Net Apoptosis (HN5 cells; GW589522 0 μM 24 h, then Ex 9 0.5 μM 4 h) [%] | Net Apoptosis (HN5 cells; GW589522 0 μM 24 h, then Ex 9 2 μM 4 h) [%] | Net Apoptosis (HN5 cells; GW589522 0 μM 24 h, then Ex 9 8 μM 4 h) [%] | Sensitization Ratio in HN5 with 5 μM GW589522A (HN5 cells; then compound 2.5 μM 4 h) | Sensitization Ratio in HN5 with 5 μM GW589522A (HN5 cells; then compound 5 μM 4 h)
5.08 | 5.10 | 6.35 | Nc1nonc1-c1nc2c(-c3cccc(Cl)c3)ncc(C(=O)NCCNCc3ccccc3)c2n1CC1CC1.O=C(O)C(F)(F)F [Ex 8, 2-(4-amino-1,2,5-oxadiazol-3-yl)-4-(3-chlorophenyl)-1-(cyclopropylmethyl)-N-{2-[(phenylmethyl)amino]ethyl}-1H-imidazo[4,5-c]pyridine-7-carboxamide, trifluoroacetate salt] | 27 @ 25 | 7.1 | – | – | – | – | – | – | – | – | – | – | –
7.52 | 7.70 | 8.00 | CCn1c(-c2nonc2N)nc2c(-c3cccc(Cl)c3)ncc(OCC3CCNCC3)c21.O=C(O)C(F)(F)F [Ex 11, 4-{4-(3-chlorophenyl)-1-ethyl-7-[(4-piperidinylmethyl)oxy]-1H-imidazo-[4,5-c]pyridin-2-yl}-1,2,5-oxadiazol-3-amine trifluoroacetate] | – | – | – | – | – | – | – | – | – | – | – | 20 @ 2.5 | 25 @ 5

SMILES | pIC50 (AKT1) | pIC50 (AKT2) | pIC50 (AKT3) | Sensitization Ratio in HN5 with 5 μM GW589522A (HN5 cells; then compound 25 μM 4 h) | SR (sensitization ratio) (T47D cells) | Sensitization Ratio in HN5 with 5 μM GW589522A (HN5 cells; then compound 4 μM 4 h) | Net Apoptosis (HN5 cells; GW572016 0 μM 24 h, then Ex 9 2 μM 4 h) [%] | Net Apoptosis (HN5 cells; GW572016 0 μM 24 h, then Ex 9 4 μM 4 h) [%] | Net Apoptosis (HN5 cells; GW572016 0 μM 24 h, then Ex 9 8 μM 4 h) [%] | Net Apoptosis (HN5 cells; GW572016 0 μM 24 h, then Ex 9 16 μM 4 h) [%] | Net Apoptosis (HN5 cells; GW572016 0 μM 24 h, then Ex 9 20 μM 4 h) [%] | Net Apoptosis (HN5 cells; GW589522 0 μM 24 h, then Ex 9 0.5 μM 4 h) [%] | Net Apoptosis (HN5 cells; GW589522 0 μM 24 h, then Ex 9 2 μM 4 h) [%] | Net Apoptosis (HN5 cells; GW589522 0 μM 24 h, then Ex 9 8 μM 4 h) [%] | Sensitization Ratio in HN5 with 5 μM GW589522A (HN5 cells; then compound 2.5 μM 4 h) | Sensitization Ratio in HN5 with 5 μM GW589522A (HN5 cells; then compound 5 μM 4 h)
CCn1c(-c2nonc2N)nc2cncc(OC3CCNCC3)c21 [Ex 9, 4-[1-Ethyl-7-(piperidin-4-yloxy)-1H-imidazo[4,5-c]pyridin-2-yl]-furazan-3-ylamine] | 6.89 | 6.41 | 6.39 | – | – | 2.6 @ 4 | 2.7 | 1.8 | 3.9 | 3.7 | 4.7 | 6.3 | 8.7 | 17.9 | – | –
